The source of these data is patent US7846944B2, “Pyrazolo-pyridinone compounds and methods of use thereof” (Amgen Inc., priority 2007, dated 2010).

Where two headings read alike, the source gives them in different places.

Experiment [1] has as its system TNF-α secretion by LPS-treated THP1 cells. As to the kind of experiment: Lipopolysaccharide-activated THP1 cell TNF production assay. In kind it is cell-based. Conditions: Homo sapiens, read-out: IC50 in the THP-1 cellular TNF production assay.
Experiment [2] relates to production of IL-1β, IL-6, and TNF-α by PBMC activated with LPS. As to the kind of experiment: Lipopolysaccharide-activated PBMC cytokine production assay. In kind it is cell-based. The following applies: read-out: IC50 in the whole blood PMBC assay. As to the method:
Lipopolysaccharide-Activated PBMC Cytokine Production Assay
Test compounds were evaluated in vitro for the ability to inhibit the production of IL-1β, IL-6, and TNF-α by PBMC activated with bacterial lipopolysaccharide (LPS). Fresh leukocytes were obtained from a local blood bank, and peripheral blood mononuclear cells (PBMCs) were isolated by density gradient centrifugation on Ficol-Paque Plus (Pharmacia).
Preparation of Test Compound Stock Solutions
All reagents were prepared in RPMI 1640+10% v/v human AB serum+1×Pens/Strep/Glu (assay medium). Test compounds were dissolved in 100% DMSO and serially diluted in 96-well polypropylene round bottom micro titer plates (drug plate). Serial dilutions were then diluted 1:250 into assay medium to a 4× working concentration. Compound serial dilutions were half-log, 10 point titrations with a final starting concentration of 1 μM.
Treatment of Cells with Test Compounds and Activation with Lipopolysaccharide
LPS was prepared to a 4× concentration in assay medium. 100 μl of PBMC (1×10^6 cells/ml) were plated in a 96-well polystyrene flat bottom micro titer tissue culture plate and incubated with 50 μl of 4× compound serial dilution for 1 hour at 37° C., 5% CO2 in a tissue culture incubator. 50 μl 4×LPS or control was added and the plates were incubated at 37° C., 5% CO2 in a tissue culture incubator for 18 hours. The final DMSO concentration was 0.1%. The total volume was 200 μL. The final LPS concentration was 100 ng/mL. After 18 hours culture supernatants were removed and IL-1β, IL-6, and TNF-α presence in the supernatants was quantified using MSD ECL based technology.
Cytokine Measurements 20 μL of culture supernatant were added to MSD plates, and incubated for one hour at room temperature. 20 μL of detection antibody diluted in antibody diluent (1 μg/mL), and 110 μL of 2× Read Buffer P was added, and incubated for one hour at RT. Electrochemiluminescence was measured using the SECTOR HTS Imager (MSD, Gaithersburg, Md.). Data Analysis
Compound IC50 values were calculated as follows: The proportion of cytokine production in the presence of compound compared to the cytokine production in the presence of the DMSO vehicle alone (Hi control) was calculated using the formula: Percent Control (POC)=(compound−average Lo)/(average Hi−average Lo)*100.

Experiment [3] relates to Collagen-Induced Arthritis (CIA) Model in Rats. As to the kind of experiment: Collagen-induced arthritis (CIA) model in rats. In kind it is in vivo. Conditions: 168 h; rat, treated for 7 days from onset of arthritis. On the procedure: Collagen-Induced Arthritis (CIA) Model in Rats
Porcine type II collagen (10 mg) was dissolved in 0.1N acetic acid (5 mL) two days prior to use on a rotating plate in the refrigerator. Subsequently, collagen was emulsified 1:1 with Freund's incomplete adjuvant using an emulsification needle and glass syringes yielding a final concentration of 1 mg/mL.
Disease was induced in each animal by intradermal injection of emulsified collagen in IFA at 10 different sites (100 μL per site) over the back. […] At onset (defined as Day 0), rats were randomized to treatment groups and therapy was initiated with drug or vehicle control as noted in table above. Rats were treated for 7 days and were sacrificed on Day 8.

Another experiment has as its target recombinant human p38α (Homo sapiens, UniProt Q16539). The experiment is described as follows: Purified and activated recombinant human p38α HTRF kinase assay. It is filed as biochemical. Conditions: 1 nM p38α, 50 μM ATP, GST-ATF2 substrate, read-out: p38a IC50. Background: In TR-FRET formats the signal depends on donor and acceptor labels being close together.
[4] abbreviates: THP-1, LPS, 3 hours, THP1 cells.
Setting [5] is: LPS 100 ng/mL, 18 hours, IL-1β, IL-6, TNF-α.

recombinant human p38α, sequence (Q16539 whole entry): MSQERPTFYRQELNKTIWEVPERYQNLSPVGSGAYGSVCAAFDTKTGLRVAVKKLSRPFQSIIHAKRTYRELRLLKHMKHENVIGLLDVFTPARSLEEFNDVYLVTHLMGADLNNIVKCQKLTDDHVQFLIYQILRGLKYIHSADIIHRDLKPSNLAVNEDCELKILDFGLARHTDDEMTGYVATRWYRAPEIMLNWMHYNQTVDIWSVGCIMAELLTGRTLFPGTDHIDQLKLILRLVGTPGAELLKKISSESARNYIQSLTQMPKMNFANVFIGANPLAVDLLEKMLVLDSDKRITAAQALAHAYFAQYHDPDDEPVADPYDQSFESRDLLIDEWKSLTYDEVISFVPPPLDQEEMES

As to `Cc1ccc(C(=O)NC2CC2)cc1-c1cc2cnn(-c3ccc(F)cc3F)c2n(C)c1=O` [Example 13, N-cyclopropyl-3-(1-(2,4-difluorophenyl)-7-methyl-6-oxo-6,7-dihydro-1H-pyrazolo[3,4-b]pyridin-5-yl)-4-methylbenzamide], the IC50 in experiment [1] (THP-1, 3 h) was ≤ 175 nM; in experiment [2] (18 h) it was ≤ 125 nM. In experiment [3], this compound returned a 50% effective dose (ED50) of 0.02 mg/kg.
Regarding `Cc1ccc(C(N)=O)cc1-c1cc2cnn(-c3c(F)cccc3F)c2n(C)c1=O` [Example 44, 3-(1-(2,6-difluorophenyl)-7-methyl-6-oxo-6,7-dihydro-1H-pyrazolo[3,4-b]pyridin-5-yl)-4-methylbenzamide], the results for the IC50 (in experiment [1] (setting [4]); in experiment [2] (setting [5]); on recombinant human p38α) were ≤ 175 nM, ≤ 125 nM and 3.4 nM, respectively. It took a dose of 0.07 mg/kg to reach the 50% effect level in experiment [3] (ED50).
Turning to `Cc1ccc(C(=O)NC2CC2)cc1-c1cc2cnn(-c3c(F)cccc3F)c2n(C)c1=O` [Example 7, N-cyclopropyl-3-(1-(2,6-difluorophenyl)-7-methyl-6-oxo-6,7-dihydro-1H-pyrazolo[3,4-b]pyridin-5-yl)-4-methylbenzamide], the IC50 is ≤ 175 nM in experiment [1] (setting [4]) and ≤ 125 nM in experiment [2] (setting [5]). For the same compound, it took a dose of 0.01 mg/kg to reach the 50% effect level in experiment [3] (ED50).
Regarding `Cc1ccc(C(=O)Nc2ccon2)cc1-c1cc2cnn(-c3ccc(F)cc3F)c2n(C)c1=O` [Example 27, 3-(1-(2,4-difluorophenyl)-7-methyl-6-oxo-6,7-dihydro-1H-pyrazolo[3,4-b]pyridin-5-yl)-N-3-isoxazolyl-4-methylbenzamide], the IC50 is ≤ 175 nM in experiment [1] (setting [4]), ≤ 125 nM in experiment [2] (setting [5]) and 2.4 nM at recombinant human p38α.

By IC50 is commonly meant the concentration that inhibits the measured activity by half. In general, ED50 refers to the dose that gives a 50% effect, or the effect in half of the subjects. Lower therefore signals an effect at a small dose.
